Entries after “also recorded” stand apart in the source; their conditions may differ.
What was measured:
Src SH3-GST = experiment: Biotinylated synthetic peptide direct binding ELISA on immobilized GST-SH3 fusion; conditions: 10 µM biotinylated peptide; streptavidin-alkaline phosphatase ELISA, absorbance at 405 nm; Figures 7 and 8
Excerpt: (§1) The preparation of Src-GST fusion protein was first described by Smith and Johnson, in Gene (1988) 67:31, the disclosure of which is incorporated by reference herein. Briefly, pGEX-derived (Pharmacia, Piscataway, NJ) constructs expressing GST fusion proteins containing the SH3 domains of Src, Grb2, Crk, Abl, or PLCγ were obtained from Dr. Channing Der (University of North Carolina at Chapel Hill.), a construct expressing the SH3 domain of Yes was obtained from Dr. Marius Sudol (Rockefeller University). The use of the pGEX bacterial expression vector for the production of GST-SH3 fusion proteins is well-known to those in the art. See, e.g., Cicchetti, P. et al., in Science (1992) 257:803-806. Briefly, the coding region for a particular SH3 domain can be fused in-frame at the Bam HI site of pGEX-2T. Thus, fusion proteins were prepared as per the manufacturer's instructions, and quantified by Coomassie Blue staining of SDS-polyacrylamide gels. Microtiter wells were coated with 5-20 µg GST-SH3 fusion protein in 100 mM NaHCO3, pH 8.5, blocked with 100 mM NaHCO3 (pH 8.5) 1% BSA, and washed. All washes consisted of five applications of 1XPBS, 0.1% Tween 20, 0.1% BSA (Buffer A). Where appropriate, the amount of protein bound to each well was quantified with an anti-GST antibody-based ELISA (Pharmacia, Piscataway, NJ), and with a GST-binding phage, isolated during the course of this work.
Bacterially expressed Src SH3 glutathione-s-transferase (Src-GST) fusion protein was purified from bacterial lysates using glutathione agarose 4B (Pharmacia), according to the manufacturer's instructions. Bound Src-GST fusion protein was eluted from the glutathione agarose with 10 mM glutathione in PBS. Microtiter wells were then coated with Src-GST fusion protein (1-10 µg/well, in 50 mM NaHCO3, pH 8.5) overnight at 4 °C. To block non-specific binding of phage, 100 µL 1% BSA in 100 mM NaHCO3, pH 8.5, was added to each well and allowed to incubate at room temperature for 1 hour. The wells were then washed five times with 200 µL PBS, 0.1% Tween 20, 0.1% BSA (Buffer A).
(§2) Peptides were obtained from Research Genetics (Birmingham, AL), Chiron Mimotopes (Victoria, Australia), or synthesized by conventional techniques by Dr. J. Mark Carter of cytogen Corporation (Princeton, NJ). Peptide purity was assessed by HPLC and/or mass spectrometry. Biotinylated peptides were synthesized with either a KSGSG (SEQ ID NO:103) or a GSGS (SEQ ID NO:104) peptide linker (a spacer) between the biotin and the N-terminus of the peptide. Binding experiments were performed as above, excepting the use of 10 µM peptide instead of phage. Bound biotinylated peptide was detected with streptavidin conjugated to alkaline phosphatase (Sigma chemical Co., st. Louis, MO). After one hour incubation period at room temperature, the wells were washed, and a solution of 3 mM p-nitrophenyl-phosphate (US Biochemicals, Cleveland, OH) in 50 mM NaCO3 (pH 9.8), and 50 mM MgCl2 was added and color allowed to develop. Signals were read with an ELISA plate reader (Molecular Devices, Menlo Park, CA) at 405 nm wavelength. Binding experiments were performed in triplicate.

SH3 domains [1] = experiment: Relative specificity of peptide binding across SH3 domains derived from different proteins; conditions: synthetic peptides, compared with 7-mer RPLPPLP, Figures 7 and 8
Excerpt: as §1, §2

Yes SH3-GST = experiment: Biotinylated synthetic peptide direct binding ELISA on immobilized GST-SH3 fusion; conditions: 10 µM biotinylated peptide, absorbance at 405 nm, Figure 8
Excerpt: as §1, §2

SH3 domains [2] = experiment: Relative specificity of peptide binding across SH3 domains derived from different proteins; conditions: not tested
[3] = target: Src and PI-3' Kinase SH3 domains; conditions: Yu et al. / Chen et al., biased library peptides; read-out: binding affinity; cited from earlier work
NIH 3T3 fibroblasts = experiment: Fluorescence staining of fixed fibroblasts with biotinylated peptides and streptavidin-Cy3; assay type: cell-based; conditions: fixed NIH 3T3 fibroblasts; biotinylated peptide, streptavidin-Cy3; Figure 11
Protocol: Thus, NIH 3T3 fibroblasts were cultured in vitro on glass coverslips coated with fibronectin. After two days of growth at 37 °C, the cells were fixed for one hour at room temperature in the presence of 2% paraformaldehyde (pH 7.5). The coverslips were washed with PBS-0.1% Tween 20 several times to remove the fixative. Next, the coverslips were dipped into acetone (chilled at -20 °C) for approximately 20 seconds and allowed to air-dry. The coverslips were washed again with PBS-0.1% Tween 20, containing BSA (1 mg/mL), and incubated for 2 hours at room temperature with different biotinylated peptides in PBS-0.1% Tween 20. The coverslips were washed and then incubated with 1 mg/mL streptavidin-Cy3 (Jackson Immunoresearch Co., West Grove, PA) for 1 hour at room temperature. Finally, the coverslips were washed in PBS-0.1% Tween 20, mounted in a glycerol solution on a glass slide, and viewed with a Nikon Optiphot epifluorescence microscope and a 60x oil immersion lens.

PLCγ1 SH2SH3-GST = experiment: Biotinylated synthetic peptide direct binding ELISA on immobilized GST-SH3 fusion; conditions: 10 µM biotinylated peptide, absorbance at 405 nm, Figure 8
Excerpt: as §1, §2

Grb2-GST = experiment: as above; conditions: 10 µM biotinylated peptide, absorbance at 405 nm, Figure 8
Excerpt: as §1, §2

Row | Substance | binding to Src SH3-GST (Src SH3-GST) | relative binding affinity / specificity for SH3 domains (SH3 domains [1]) | fluorescence staining / cellular localization (NIH 3T3 fibroblasts) | also measured
1 | RSTPRPLPMLPTTR | much more avidly than the 7-mer; also recorded: strong specific binding affinity | highly specific for SH3 domain of Src, Yes, and other Src-related proteins | – | binding to Yes SH3-GST (Yes SH3-GST): much more avidly than the 7-mer
2 | RSTPAPPVPPRTTR | – | – | – | surmised binding to a variety of SH3 domains (SH3 domains [2]): strong but generic binding
3 | ANPSPATRPLPTR | – | binding affinities comparable to the core consensus sequence; also recorded: avid binding affinity to SH3 domains relative to the 7-mer | – | relative binding affinity / specificity for SH3 domains (SH3 domains [1]; listed as AHPSPATRPLPTR): Src family specificity similar to GPHRRLPPTPATR
4 | RKLPPRPRR ["composite" peptide of the literature] | – | – | – | Kd [3]: 7.6 µM
5 | RSTPRPLPPLPTTR [representative consensus motif with R8C.YES3.5 flanking residues] | much more avidly than the 7-mer; also recorded: strong specific binding affinity | highly specific for SH3 domain of Src, Yes, and other Src-related proteins | localize within cellular compartments thought to contain Src or Src-related proteins | binding to Yes SH3-GST (Yes SH3-GST): much more avidly than the 7-mer
6 | biotin-spacer-LAPPKPPLPEGEV [reference compound] | – | – | relatively "dark" features | –
7 | biotin-spacer-VLKRPLPIPPVTR | – | – | bright display of fluorescence activity | –
8 | GTVEPVPPPVPPRRRPESA [reference compound] | less well than the library-derived peptides | – | – | –
9 | biotin-spacer-GILAPPVPPRNTR | – | – | bright display of fluorescence activity | –
10 | RPLPPLP | only weakly | less effective in binding to target SH3 domains | – | –
11 | GPHRRLPPTPATR | much more avidly than the 7-mer | specific to Src family SH3 domains | – | relative binding affinity / specificity for SH3 domains (SH3 domains [1]; listed as GPHRRLPPPTPATR): avid binding affinity to SH3 domains relative to the 7-mer; binding to PLCγ SH3 domain (PLCγ1 SH2SH3-GST): little affinity; binding to Grb2 SH3 domain (Grb2-GST): little affinity; binding to Yes SH3-GST (Yes SH3-GST): much more avidly than the 7-mer
12 | KISPPTPKPKPPRPLPV [reference compound] | less well than the library-derived peptides | – | – | –
13 | biotin-spacer-RSTPRPLPPLPTTR | – | – | bright display of fluorescence activity | –
14 | GILAPPVPPRNTR | much more avidly than the 7-mer | binds generically to a broad range of SH3 domains; also recorded: avid binding affinity to SH3 domains relative to the 7-mer; also recorded: more generic SH3 domain-binding characteristics | localize within cellular compartments thought to contain Src or Src-related proteins | binding to Yes SH3-GST (Yes SH3-GST): much more avidly than the 7-mer
